Results: paper PMC7165421 (Proceedings of the National Academy of Sciences of the …, 2020)

Key:
ΔNTD AR = assay: Peptide binding by fluorescence polarization; parameters: species or system mouse
AR LBD = conditions: cited from earlier work
ARE/Scr dsDNA = assay: DNA binding by fluorescence polarization, ARE/Scr dsDNA; conditions: ΔNTD AR expressed and purified in presence of enzalutamide (20 μM) vs DHT
[1] = test system: AR binding from chromatin; conditions: ChIP assays; cited from earlier work
ARE dsDNA = assay: DNA binding by fluorescence polarization, minimal ARE dsDNA; conditions: ΔNTD AR, specificity control
[2] = test system: ARE containing double-stranded DNA (dsDNA) templates; assay: DNA binding by fluorescence polarization, all ARE dsDNAs tested; conditions: FL AR relative to ΔNTD AR, DHT-bound

QIQLWHFILELLRKEEY [ERF AIM]
affinity compared to the ERG AIM (ΔNTD AR; ΔNTD AR): slightly less than the ERG AIM

KTYRGAFQNLFQSVREA [AF1]
binding to ΔNTD AR with full-length ERG present (ΔNTD AR; equimolar full-length ERG, fluorescein-labeled AF1 peptide): further decrease in AF1 binding | affinity for ΔNTD AR compared to ERG AIM peptide (ΔNTD AR; presence and absence of DNA, fluorescein-labeled AF1 peptide): more than an order of magnitude reduced affinity | affinity of AF1 for AR LBD (AR LBD): micromolar

CNC(=O)c1ccc(N2C(=S)N(c3ccc(C#N)c(C(F)(F)F)c3)C(=O)C2(C)C)cc1F [ENZ, enzalutamide]
reduction of AR DNA binding relative to DHT (ARE/Scr dsDNA): twofold | displacement of AR from chromatin [1]: displaces AR binding from chromatin in cells

bovine serum albumin (BSA): specificity control
stimulation of AR DNA binding (ARE dsDNA): failed to stimulate AR

B1: FL AR: recombinant AR with the N terminus intact (protein)
chain: MEVQLGLGRVYPRPPSKTYRGAFQNLFQSVREAIQNPGPRHPEAANIAPPGACLQQRQETSPRRRRRQQHTEDGSPQAHIRGPTGYLALEEEQQPSQQQAASEGHPESSCLPEPGAATAPGKGLPQQPPAPPDQDDSAAPSTLSLLGPTFPGLSSCSADIKDILNEAGTMQLLQQQQQQQQHQQQHQQHQQQQEVISEGSSARAREATGAPSSSKDSYLGGNSTISDSAKELCKAVSVSMGLGVEALEHLSPGEQLRGDCMYASLLGGPPAVRPTPCAPLPECKGLPLDEGPGKSTEETAEYSSFKGGYAKGLEGESLGCSGSSEAGSSGTLEIPSSLSLYKSGALDEAAAYQNRDYYNFPLALSGPPHPPPPTHPHARIKLENPLDYGSAWAAAAAQCRYGDLGSLHGGSVAGPSTGSPPATTSSSWHTLFTAEEGQLYGPGGGGGSSSPSDAGPVAPYGYTRPPQGLTSQESDYSASEVWYPGGVVNRVPYPSPNCVKSEMGPWMENYSGPYGDMRLDSTRDHVLPIDYYFPPQKTCLICGDEASGCHYGALTCGSCKVFFKRAAEGKQKYLCASRNDCTIDKFRRKNCPSCRLRKCYEAGMTLGARKLKKLGNLKLQEEGENSNAGSPTEDPSQKMTVSHIEGYECQPIFLNVLEAIEPGVVCAGHDNNQPDSFAALLSSLNELGERQLVHVVKWAKALPGFRNLHVDDQMAVIQYSWMGLMVFAMGWRSFTNVNSRMLYFAPDLVFNEYRMHKSRMYSQCVRMRHLSQEFGWLQITPQEFLCMKALLLFSIIPVDGLKNQKFFDELRMNYIKELDRIIACKRKNPTSCSRRFYQLTKLLDSVQPIARELHQFTFDLLIKSHMVSVDFPEMMAEIISVQVPKILSGKVKPIYFHTQ
impairment of DNA binding by presence of NTD [2]: greater than 10 fold
